Legend:
[1] = target: human vanin-1 present in human plasma (Homo sapiens (Human), UniProt O95497); assay: Vanin-1 in Human Plasma Assay; assay type: biochemical; settings: 50% pooled human plasma, 50 uM substrate
Experimental: Vanin-1 in Human Plasma Assay.
The in vitro assay measures enzymatic cleavage of the fluorescently-labeled vanin substrate, pantetheine 7-amino-4-trifluoromethylcoumarin, by human vanin-1 present in human plasma.
Human plasma was prepared from whole blood drawn from healthy donors, collected in tubes containing sodium heparin. The plasma fractions were separated from the whole blood by centrifugation for 10 minutes at 2000×g and pooled.
The test inhibitors were solubilized in DMSO to a stock concentration of 30 mM. On the day of the assay, dose response plates were prepared by diluting the inhibitors in DMSO to a compound concentration 200-fold the final in-assay concentration. Concentration series were prepared by serially diluting in 100% DMSO in a three-fold series. […] From this intermediate compound plate, 10 μL were transferred to the assay plate and mixed with 20 uL of the pooled human plasma. The inhibitor and enzyme were co-incubated at room temperature for 30 minutes. The enzyme reaction was initiated by the addition of 10 μL of 200 uM pantetheine 7-amino-4-trifluoromethylcoumarin prepared in assay buffer. The final concentrations in the assay were 50% plasma, and 50 uM substrate. The final concentration of DMSO was 0.5%. Datapoints were measured over time using a Tecan Safire 2 platereader at 405 nm excitation wavelength and a 510 nm emission wavelength for detection.

human vanin-1 = human vanin-1 (Homo sapiens (Human), UniProt O95497); assay: Human Vanin-1 Enzyme Assay 1; assay type: biochemical; settings: 25 pM human vanin-1, 50 uM pantetheine 7-amino-4-trifluoromethylcoumarin substrate
Sequence of human vanin-1 (O95497 22-491): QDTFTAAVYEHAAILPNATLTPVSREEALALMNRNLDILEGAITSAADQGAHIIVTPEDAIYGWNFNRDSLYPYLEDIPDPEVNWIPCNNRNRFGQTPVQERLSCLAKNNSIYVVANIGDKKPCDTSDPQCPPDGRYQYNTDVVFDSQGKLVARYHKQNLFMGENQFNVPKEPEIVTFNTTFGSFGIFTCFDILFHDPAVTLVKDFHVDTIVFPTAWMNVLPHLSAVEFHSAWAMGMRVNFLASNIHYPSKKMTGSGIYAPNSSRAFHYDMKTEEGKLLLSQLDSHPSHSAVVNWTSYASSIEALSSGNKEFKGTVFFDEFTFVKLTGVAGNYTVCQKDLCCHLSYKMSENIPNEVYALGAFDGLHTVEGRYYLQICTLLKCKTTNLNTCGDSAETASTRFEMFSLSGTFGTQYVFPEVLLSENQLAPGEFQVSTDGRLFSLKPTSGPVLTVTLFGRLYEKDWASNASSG

Sequence of human vanin-1 present in human plasma (O95497 22-491): as above

| IC50 [1] [nM] | IC50 (human vanin-1) [nM] | SMILES |
| --- | --- | --- |
| 1.08 | 0.062 | CC(C)(Nc1ncc(C(=O)N2CCC3(CCOCC3)C2)cn1)c1cnccn1 [Example 182, 8-oxa-2-azaspiro[4.5]dec-2-yl(2-{[2-(pyrazin-2-yl)propan-2-yl]amino}pyrimidin-5-yl)methanone] |
| 4.63 | 5.48 | O=C(c1cnc(NCc2cncnc2)nc1)N1CC2(CCOCC2)C1 [Example 186] |
| 16.5 | 6.33 | Cc1ncc(CNc2ncc(C(=O)N3CCC4(CCOCC4)C3)cn2)cn1 [Example 170] |
| 27.5 | 4.39 | C[C@H](Nc1ncc(C(=O)N2CCC3(CCOCC3)C2)cn1)c1ccncn1 [Example 155] |
| 205 | 175 | O=C(c1cnc(NC2(c3cncnc3)CC2)nc1)N1CCCC(F)(F)C1 [Example 70] |
| 1.22 | 0.082 | CC(C)(Nc1ncc(C(=O)N2CCC3(CCOCC3)C2)cn1)c1cncnc1 [Example 143, 8-oxa-2-azaspiro[4.5]dec-2-yl(2-{[2-(pyrimidin-5-yl)propan-2-yl]amino}pyrimidin-5-yl)methanone] |
| 2.03 | 1.11 | O=C(c1cnc(NC2(c3cnccn3)CC2)nc1)N1CC2(CCOCC2)C1 [Example 158] |
| 0.905 | 0.293 | O=C(c1cnc(NC2(c3cncnc3)CCC2)nc1)N1CC2(CCOCC2)C1 [Example 174] |
| 1.3 | 0.677 | C[C@H](Nc1ncc(C(=O)N2CCC3(CCOCC3)C2)cn1)c1cncnc1 [Example 149] |
| 9.86 | 10.9 | COC1CCCN(C(=O)c2cnc(NC3(c4cncnc4)CC3)nc2)C1 (centres unmarked) [Example 96] |
|  | 1.29 | Cc1ncc(C(C)Nc2ncc(C(=O)N3CCC4(CCOCC4)C3)cn2)cn1 (centres unmarked) [Example 159] |
|  | 2.51 | O=C(c1cnc(NC2(c3cncnc3)CC2)nc1)N1C[C@@H]2CCCC[C@]2(CO)C1 (relative stereo) [Example 61] |
|  | 0.043 | O=C(c1cnc(NC2(c3cnccn3)CCC2)nc1)N1CC2(CCOCC2)C1 [Example 138] |
|  | 3090 | O=C(c1cnc(NCc2cccnc2)nc1)N1CCCC2(COC2)C1 [Example 31] |
|  | 5.66 | O=C(c1cnc(NC2(c3cncnc3)CC2)nc1)N1CCC(F)(F)CC1 [Example 98] |
|  | 21.3 | CO[C@@H]1CCN(C(=O)c2cnc(NC3(c4cncnc4)CC3)nc2)C1 [Example 79] |
|  | 24.9 | O=C(c1cnc(NC2(c3cncnc3)CC2)nc1)N1CCC2(CCCO2)CC1 [Example 56] |
|  | 24.2 | C[C@H]1C[C@@H](O)CN(C(=O)c2cnc(NC3(c4cncnc4)CC3)nc2)C1 [Example 86] |

More lines, now with the values behind:

| SMILES | IC50 [1] [nM] | IC50 (human vanin-1) [nM] |
| --- | --- | --- |
| CS(=O)(=O)C1CCCN(C(=O)c2cnc(NC3(c4cncnc4)CC3)nc2)C1 (single isomer, unassigned) [Example 200] | 32.6 | 10.6 |
| O=C(c1cnc(NC2(c3cncnc3)CC2)nc1)N1CCCCC1 [Example 190] | 12.4 | 12.5 |
| C[C@H](Nc1ncc(C(=O)N2CC3(CCOCC3)C2)cn1)c1cnccn1 [Example 147] | 1.89 | 0.65 |
| Cc1ccc(CNc2ncc(C(=O)N3CCC4(CCOCC4)C3)cn2)cn1 [Example 137] | 5.02 | 5.24 |
| C[C@@H](Nc1ncc(C(=O)N2CCC3(CCOCC3)C2)cn1)c1cncnc1 [Example 150] | 35.6 | 27.8 |
| O=C(c1cnc(NC2(c3cncnc3)CC2)nc1)N1CCC2(CCOCC2)C1 [Example 188, 8-oxa-2-azaspiro[4.5]dec-2-yl(2-{[1-(pyrimidin-5-yl)cyclopropyl]amino}pyrimidin-5-yl)methanone] | 1.17 | 0.277 |
| O=C(c1cnc(NC2(c3cncnc3)COC2)nc1)N1CCC2(CCOCC2)C1 [Example 133] | 0.524 | 0.43 |
| CC(C)(Nc1ncc(C(=O)N2CC3(CCOCC3)C2)cn1)c1cnccn1 [Example 131, 7-oxa-2-azaspiro[3.5]non-2-yl(2-{[2-(pyrazin-2-yl)propan-2-yl]amino}pyrimidin-5-yl)methanone] | 0.838 | < 0.094 |
| O=C(c1cnc(NC2(c3cnccn3)CC2)nc1)N1CCC2(CCOCC2)C1 [Example 157] | 12.9 | 0.875 |
| Cc1ccc([C@H](C)Nc2ncc(C(=O)N3CCC4(CCOCC4)C3)cn2)cn1 [Example 140] | 0.95 | 0.283 |
| O=C(c1cnc(NCc2cnccn2)nc1)N1CC2(CCOCC2)C1 [Example 135] | 3.7 | 3.38 |
| CC(Nc1ncc(C(=O)N2CC3(CCOCC3)C2)cn1)c1cncnc1 (centres unmarked) [Example 184] | 2.21 | 1.45 |
| O=C(c1cnc(NC2(c3cncnc3)CC2)nc1)N1CCC(C(F)(F)F)C1 (single isomer, unassigned) [Example 193] | 5.39 | 7.12 |
| O=C(c1cnc(NC2(c3cnccn3)CCC2)nc1)N1CCC2(CCOCC2)C1 [Example 130, 8-oxa-2-azaspiro[4.5]dec-2-yl(2-{[1-(pyrazin-2-yl)cyclobutyl]amino}pyrimidin-5-yl)methanone] | 0.743 | < 0.041 |
| O=C(c1cnc(NC2(c3cncnc3)CC2)nc1)N1CCC2(CC1)COC2 [Example 59] | 49.2 | 47.4 |
| Cc1ccc(C(C)Nc2ncc(C(=O)N3CCC4(CCOCC4)C3)cn2)cn1 (centres unmarked) [Example 162] | 2.97 | 0.629 |
| O=C(c1cnc(NC2(c3ncccn3)CC2)nc1)N1CC2(CCOCC2)C1 [Example 179] | 14.4 | 7.33 |
| Cc1ccc(CNc2ncc(C(=O)N3CC4(CCOCC4)C3)cn2)cn1 [Example 172] | 17.4 | 4.53 |

| SMILES | IC50 [1] [nM] | IC50 (human vanin-1) [nM] |
| --- | --- | --- |
| N#CC1CCCN(C(=O)c2cnc(NC3(c4cncnc4)CC3)nc2)C1 (single isomer, unassigned) [Example 196] | > 793 | 1180 |
| O=C(c1cnc(NC2(c3cncnc3)CCC2)nc1)N1CCC2(CCOCC2)C1 [Example 173] | 1.61 | 0.116 |
| O=C(c1cnc(NCc2cncnc2C(F)(F)F)nc1)N1CCC2(CCOCC2)C1 [Example 166] | 39.1 | 32.6 |
| O=C(c1cnc(NC2(c3cncnc3)CC2)nc1)N1CCCC1 [Example 87] | 68 | 79.8 |
| O=C(c1cnc(NC2(c3cncnc3)CC2)nc1)N1CCC(O)(C(F)(F)F)CC1 [Example 90] |  | 348 |
| O=C(c1cnc(NCc2cnccn2)nc1)N1CC[C@@H](N2CCOCC2)C1 [Example 124] |  | 4620 |
| CC1(O)CCN(C(=O)c2cnc(NCc3cccnc3)nc2)CC1 [Example 9] |  | 48.1 |
| CCN1CCC2(CCN(C(=O)c3cnc(N[C@@H](C)c4cnccn4)nc3)C2)C1 (some centres unmarked) [Example 117] |  | 5.11 |
| Cc1ccc([C@@H](C)Nc2ncc(C(=O)N3CCC4(CCOCC4)C3)cn2)cn1 [Example 141] |  | 87.3 |
| CC1(CO)CCCN(C(=O)c2cnc(NC3(c4cncnc4)CC3)nc2)C1 (centres unmarked) [Example 108] | 452 | 387 |
| O=C(c1cnc(NCCc2cncnc2)nc1)N1CCC2(CCOCC2)C1 [Example 181] |  | 200 |
| O=C(c1cnc(NC2(c3cncnc3)CC2)nc1)N1CCC2(CCCC2)CC1 [Example 49] |  | 7.5 |
| C[C@@H]1CCCN1C(=O)c1cnc(NC2(c3cncnc3)CC2)nc1 [Example 76] |  | 122 |
| N#CC1CCCN(C(=O)c2cnc(NC3(c4cncnc4)CC3)nc2)C1 (single isomer, unassigned) [Example 197] |  | 5.22 |
| O=C(c1cnc(NC2(c3cncnc3)CC2)nc1)N1CCC2(CCCCO2)CC1 [Example 50] |  | 19.9 |
| O=C(c1cnc(NC2(c3cncnc3)CC2)nc1)N1CCCC[C@@H]1CO [Example 82] |  | 147 |
| O=C(c1cnc(NCc2cccnc2)nc1)N1CCC(F)(CO)CC1 [Example 17] |  | 328 |

— patent US10906888B2, “Pyrimidine carboxamides as inhibitors of Vanin-1 enzyme” (Pfizer Inc., priority 2016, dated 2021)
